# Experimental data taken from patent publication US12421225B2, “Heteroaromatic amide derivative and medicament containing the same” (KAKEN PHARMACEUTICAL CO., LTD., priority 2018, dated 2025).
# Molecular target: human Nav1.7 (Homo sapiens (Human), UniProt Q15858)
# Assay: Human Nav1.7 inhibitory activity evaluation (automated patch clamp QPatch16X, HEK293A cells stably expressing human Nav1.7 and human Navβ1)
# Format: cell-based
# Details: human Nav1.7, automated patch clamp
# Method: Test Example 1: Human Nav1.7 Inhibitory Activity Evaluation
# A cell line in which human Nav1.7 and human Navβ1 subunits were stably expressed in HEK293A cells was used. Dulbecco's Modified Eagle Medium (DMEM) supplemeted with 10% fetal bovine serum, 600 μg/ml geneticin, and 2 μg/ml blasticidin S were used as culture medium under the conditions of 37° C. and 5% CO2 in T175 flasks to carry out culturing. When 60-80% confluence was reached, the cells were detached and a cell suspension of about 0.5-5.0×10^6 cells/mL was prepared. The amount of current through human Nav1.7 was recorded using a fully automatic patch clamp device QPatch16X (Sophion Biosciences) at room temperature. As the extracellular solution, the solution of 145 mM NaCl, 4 mM KCl, 1 mM MgCl2, 2 mM CaCl2, 10 mM Glucose, 10 mM 4-(2-hydroxyethyl)-1-piperazine ethanesulfonic acid (HEPES) at pH 7.4 was used. As the intracellular solution, the solution of 135 mM CsF, ⅕ mM glycol ether diaminetetraacetic acid (EGTA)/CsOH, 10 mM HEPES, 10 mM NaCl at pH 7.3 was used. The test compounds were dissolved in dimethyl sulfoxide (DMSO) and diluted with the extracellular solution to attain the DMSO concentration of 0.1% at the time of assay.
# The current response was obtained at a sampling frequency of 25 kHz, and noise was removed with a 3 kHz low-pass filter. The holding potential was −100 mV. Correction of the leakage current was carried out by applying a step pulse of −120 mV before the test pulse. In order to investigate inhibitory action of the test compound, the following test pulse was given: Namely, after depolarizing pulse of −10 mV was applied for 50 milliseconds, it was fixed at −120 mV for 500 milliseconds; a potential at which about 30-40% of the channel was inactivated was maintained for 15 seconds, then fixed again at −120 mV for 100 milliseconds, and finally a −10 mV depolarization pulse was given for 50 milliseconds. Test pulses were given before and after the test compound addition.
# The inhibitory activity of the test compound was determined based on the amount of inward current generated by the second depolarization pulse, and the 50% inhibitory concentration (IC50) was calculated from the concentration-response curve.
# Sequence of human Nav1.7 (Q15858 whole entry): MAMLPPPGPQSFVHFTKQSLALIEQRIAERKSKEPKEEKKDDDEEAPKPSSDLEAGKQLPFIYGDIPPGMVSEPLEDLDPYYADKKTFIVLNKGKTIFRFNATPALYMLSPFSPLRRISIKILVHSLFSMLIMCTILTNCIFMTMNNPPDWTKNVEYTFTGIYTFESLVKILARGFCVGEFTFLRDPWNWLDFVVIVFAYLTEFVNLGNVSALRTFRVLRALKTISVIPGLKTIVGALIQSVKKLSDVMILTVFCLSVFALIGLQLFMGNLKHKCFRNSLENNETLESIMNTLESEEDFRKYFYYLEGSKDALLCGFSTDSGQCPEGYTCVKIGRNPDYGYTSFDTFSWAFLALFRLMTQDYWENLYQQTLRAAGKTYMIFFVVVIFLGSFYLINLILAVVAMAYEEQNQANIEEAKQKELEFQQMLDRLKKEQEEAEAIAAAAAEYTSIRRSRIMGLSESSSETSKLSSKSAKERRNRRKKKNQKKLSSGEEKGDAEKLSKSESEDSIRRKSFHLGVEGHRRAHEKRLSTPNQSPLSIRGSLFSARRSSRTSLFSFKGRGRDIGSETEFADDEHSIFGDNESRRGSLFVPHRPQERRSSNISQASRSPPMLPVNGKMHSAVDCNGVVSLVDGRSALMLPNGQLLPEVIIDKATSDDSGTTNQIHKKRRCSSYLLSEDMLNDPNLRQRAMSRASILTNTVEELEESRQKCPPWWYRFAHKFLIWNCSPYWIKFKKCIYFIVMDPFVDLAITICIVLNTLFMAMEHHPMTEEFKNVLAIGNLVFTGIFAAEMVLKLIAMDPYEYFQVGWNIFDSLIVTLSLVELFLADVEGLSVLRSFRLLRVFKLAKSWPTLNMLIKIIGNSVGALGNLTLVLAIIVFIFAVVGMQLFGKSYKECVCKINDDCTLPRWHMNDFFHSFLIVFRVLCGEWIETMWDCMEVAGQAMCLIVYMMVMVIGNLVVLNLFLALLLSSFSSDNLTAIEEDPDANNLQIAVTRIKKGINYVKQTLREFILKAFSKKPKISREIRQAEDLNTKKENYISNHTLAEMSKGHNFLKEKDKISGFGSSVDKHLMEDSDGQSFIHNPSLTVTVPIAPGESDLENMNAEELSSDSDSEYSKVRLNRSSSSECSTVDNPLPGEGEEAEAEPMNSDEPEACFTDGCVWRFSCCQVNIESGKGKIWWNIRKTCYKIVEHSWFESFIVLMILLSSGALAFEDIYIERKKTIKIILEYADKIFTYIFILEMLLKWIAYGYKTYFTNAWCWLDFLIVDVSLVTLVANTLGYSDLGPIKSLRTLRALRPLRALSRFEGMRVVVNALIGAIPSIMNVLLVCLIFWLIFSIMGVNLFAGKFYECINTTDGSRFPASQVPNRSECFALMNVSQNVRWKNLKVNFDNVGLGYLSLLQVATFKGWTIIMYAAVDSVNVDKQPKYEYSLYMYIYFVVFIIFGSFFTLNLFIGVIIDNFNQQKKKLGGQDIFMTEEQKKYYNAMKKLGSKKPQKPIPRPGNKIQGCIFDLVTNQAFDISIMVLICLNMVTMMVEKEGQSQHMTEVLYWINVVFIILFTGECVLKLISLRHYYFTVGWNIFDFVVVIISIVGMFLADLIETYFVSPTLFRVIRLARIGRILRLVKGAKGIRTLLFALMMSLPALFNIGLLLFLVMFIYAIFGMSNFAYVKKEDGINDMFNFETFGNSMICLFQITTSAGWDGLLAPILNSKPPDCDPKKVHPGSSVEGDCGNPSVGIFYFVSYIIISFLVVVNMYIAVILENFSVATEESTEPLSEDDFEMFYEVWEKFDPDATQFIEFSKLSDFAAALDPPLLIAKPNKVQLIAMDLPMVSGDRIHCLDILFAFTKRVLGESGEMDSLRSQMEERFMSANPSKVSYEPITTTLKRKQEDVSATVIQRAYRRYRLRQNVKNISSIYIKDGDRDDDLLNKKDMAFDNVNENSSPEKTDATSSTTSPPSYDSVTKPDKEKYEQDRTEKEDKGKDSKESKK
# Sequence of human Nav1.7 (Q07699 19-218 partner): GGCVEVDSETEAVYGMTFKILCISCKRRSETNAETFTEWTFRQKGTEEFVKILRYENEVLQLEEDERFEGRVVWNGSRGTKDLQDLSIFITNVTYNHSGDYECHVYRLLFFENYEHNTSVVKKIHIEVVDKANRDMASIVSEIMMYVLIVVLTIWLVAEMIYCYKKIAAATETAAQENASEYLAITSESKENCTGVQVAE
row,IC50,Compound
1,< 10 µM,N#Cc1ccc2c(c1)C[C@@H](NC(=O)c1cc3n(n1)CCN(C1CCCC1)C3)CO2 [Example 271]
2,< 10 µM,CCOCc1cccc2c1CC(NC(=O)c1cn3c(n1)CCC(C(F)(F)F)C3)CO2 (stereo not shown) [Example 296]
3,< 10 µM,N#CCc1cccc2c1CC(NC(=O)c1cn3c(n1)CCC(C(F)(F)F)C3)CO2 (stereo not shown) [Example 297]
4,< 1 µM,O=C(N[C@H]1COc2ccc(CCOC(F)(F)F)cc2C1)c1nc2n(c1-c1ccccn1)CCCC2 [Example 306]
5,< 10 µM,O=C(c1cn2c(n1)CCC(c1cccc(N3CC(O)C3)n1)C2)N1CCC(c2ccccc2)C1 (stereo not shown) [Example 309]
6,< 10 µM,O=C(c1cn2c(n1)CCC(c1cccnc1C(F)(F)F)C2)N1CCCC1c1ccccc1 (stereo not shown) [Example 315]
7,< 10 µM,CCC(F)(CC)C1CCc2nc(C(=O)N[C@H]3COc4ccccc4C3)cn2C1 (stereo partly shown) [Example 319]
8,< 10 µM,CN1Cc2nc(C(=O)NCCc3c[nH]c4ccccc34)cn2CC1c1ccccc1 (stereo not shown) [Example 323]
9,< 1 µM,CN1Cc2nc(C(=O)N3CCC(F)(c4ccccc4Cl)C3)cn2CC1c1ccccc1 (stereo not shown) [Example 329]
10,< 10 µM,O=C(N[C@H]1COc2ccccc2C1)c1nc2n(c1-c1ccccc1)CCN(C(=O)C(F)(F)F)C2 [Example 339]
11,< 1 µM,COc1cccc(-c2c(C(=O)N[C@H]3COc4ccc(Cl)cc4C3)nn3c2CCCC3)n1 [Example 348]
12,< 1 µM,O=C(NC1COc2ccc(Cl)cc2C1)c1cc2n(n1)CCC(c1ccccc1)O2 (stereo not shown) [Example 355]
13,< 1 µM,COc1ncccc1C1CCn2nc(C(=O)N[C@H]3COc4ccc(Cl)cc4C3)cc2O1 (stereo partly shown) [Example 367]
14,< 10 µM,CN(C)CCOCc1ccc2c(c1)C[C@@H](NC(=O)c1cc3n(n1)CCC(c1ccccc1F)O3)CO2 (stereo partly shown) [Example 369]
15,< 1 µM,CCOc1ncccc1C1CCn2nc(C(=O)N[C@H]3COc4ccc(C#N)cc4C3)cc2O1 (stereo partly shown) [Example 372]
16,< 1 µM,C=C1CCn2nc(C(=O)N[C@H]3COc4ccc(Cl)cc4C3)cc2O1 [Example 379]
17,< 1 µM,N#Cc1ccc2c(c1)C[C@@H](NC(=O)c1cc3n(n1)CCC(Cc1ccc(F)cc1)O3)CO2 (stereo partly shown) [Example 384]
18,< 1 µM,C=Cc1ccc2c(c1)C[C@@H](NC(=O)c1cc3n(n1)CCC(C(F)(F)F)O3)CO2 (stereo partly shown) [Example 396]
19,< 10 µM,COC(C)(C)C#Cc1ccc2c(c1)C[C@@H](NC(=O)c1cc3n(n1)CCC(C(F)(F)F)O3)CO2 (stereo partly shown) [Example 398]
20,< 1 µM,O=C(N[C@H]1COc2ccc(COC3CCC3)cc2C1)c1cc2n(n1)CCC(C(F)(F)F)O2 (stereo partly shown) [Example 399]
21,< 1 µM,O=C(N[C@H]1COc2ccc(Cl)cc2C1)c1cc2n(n1)CCC(C#CC1CC1)O2 (stereo partly shown) [Example 406]
22,< 1 µM,N#Cc1ccc2c(c1)C[C@@H](NC(=O)c1cc3n(n1)CCC(COCC1CCC1)O3)CO2 (stereo partly shown) [Example 410]
23,< 1 µM,O=C(N[C@H]1COc2ccc(Cl)cc2C1)c1cc2n(n1)CCC(COCC1CCOCC1)O2 (stereo partly shown) [Example 413]
24,< 10 µM,O=C(c1cc2n(n1)CCC(COCC1COC1)O2)N(CC1COC1)[C@H]1COc2ccc(-c3ccccn3)cc2C1 (stereo partly shown) [Example 414]
25,< 10 µM,O=C(N[C@H]1COc2ccc(Cl)cc2C1)c1cc2n(n1)CCC1(CCOCC1)O2 [Example 416]

# The next lines start with the compound.
row,Compound,IC50
1,O=C(N[C@H]1COc2ccc(Cl)cc2C1)c1cc2n(n1)CCN(CCOc1ccccn1)C2 [Example 274],< 10 µM
2,COc1cc(C2(N3CCn4nc(C(=O)N[C@H]5COc6ccc(C#N)cc6C5)cc4C3)CC2)ccn1 [Example 286],< 10 µM
3,C=Cc1cccc2c1CC(NC(=O)c1cn3c(n1)CCC(C(F)(F)F)C3)CO2 (stereo not shown) [Example 293],< 10 µM
4,O=C(N[C@H]1COc2ccccc2C1)c1nc2n(c1-c1ccccc1)CC(C(F)(F)F)CC2 (stereo partly shown) [Example 299],< 1 µM
5,N#Cc1c(C(=O)N[C@H]2COc3ccccc3C2)nc2n1CC(C(F)(F)F)CC2 (stereo partly shown) [Example 300],< 10 µM
6,O=C(N[C@H]1COc2ccccc2C1)c1nc2n(c1CCCO)CC(C(F)(F)F)CC2 (stereo partly shown) [Example 301],< 10 µM
7,C=Cc1c(C(=O)N[C@H]2COc3ccccc3C2)nc2n1CC(C(F)(F)F)CC2 (stereo partly shown) [Example 302],< 10 µM
8,O=C(c1cn2c(n1)CCC(c1cccc(N3CCCC3)n1)C2)N1CCC(c2ccccc2)C1 (stereo not shown) [Example 310],< 10 µM
9,O=C(N[C@H]1COc2ccccc2C1)c1cn2c(n1)CCC(c1cccc(C(F)(F)F)n1)C2 (stereo partly shown) [Example 314],< 1 µM
10,CC(C)(F)CCC1CCc2nc(C(=O)N[C@H]3COc4ccccc4C3)cn2C1 (stereo partly shown) [Example 320],< 10 µM
11,CN(C1CCc2nc(C(=O)N[C@H]3COc4ccccc4C3)cn2C1)S(=O)(=O)c1ccccc1 (stereo partly shown) [Example 322],< 10 µM
12,CN1Cc2nc(C(=O)N3CC(Oc4cccc(C(F)(F)F)n4)C3)cn2CC1c1ccccc1 (stereo not shown) [Example 330],< 10 µM
13,CN1Cc2nc(C(=O)N3CCC(Oc4cccc(C(F)(F)F)n4)C3)cn2CC1c1cccc(OC(F)(F)F)c1 (stereo not shown) [Example 335],< 10 µM
14,N#Cc1ccc2c(c1)C[C@@H](NC(=O)c1nc3n(c1-c1cccc(Cl)n1)CCOC3)CO2 [Example 341],< 1 µM
15,O=C(N[C@H]1COc2ccc(C3CC3)cc2C1)c1nc2n(c1-c1ccccn1)CCOC2 [Example 342],< 1 µM
16,O=C(N[C@H]1COc2ccc(C(F)(F)F)cc2C1)c1nc2n(c1-c1cccnc1OCC(F)(F)F)CCOC2 [Example 346],< 10 µM
17,O=C(NC1COc2ccccc2C1)c1nn2c(c1-c1ccccc1)CCCC2 (stereo not shown) [Example 347],< 10 µM
18,O=C(NC1COc2c(F)cc(F)cc2C1)c1cc2n(n1)CCC(c1ccccc1)O2 (stereo not shown) [Example 354],< 10 µM
19,O=C(NC1COc2ccc3ncccc3c2C1)c1cc2n(n1)CCC(c1ccccc1F)O2 (stereo not shown) [Example 363],< 10 µM
20,CCOC(C)c1ccc2c(c1)C[C@@H](NC(=O)c1cc3n(n1)CCC(c1ccccc1F)O3)CO2 (stereo partly shown) [Example 365],< 10 µM
21,O=C(N[C@H]1COc2ccc(CN3CCOCC3)cc2C1)c1cc2n(n1)CCC(c1ccccc1F)O2 (stereo partly shown) [Example 368],< 10 µM

row,Compound,IC50
1,CN(C)C(=O)COCc1ccc2c(c1)C[C@@H](NC(=O)c1cc3n(n1)CCC(c1ccccc1F)O3)CO2 (stereo partly shown) [Example 370],< 10 µM
2,COc1ccc(C2CCn3nc(C(=O)N[C@H]4COc5ccc(Cl)cc5C4)cc3O2)cn1 (stereo partly shown) [Example 371],< 1 µM
3,O=C(N[C@H]1COc2ccc(-c3ccncc3)cc2C1)c1cc2n(n1)CCC(C(F)(F)F)O2 (stereo partly shown) [Example 376],< 10 µM
4,COc1ncccc1-c1ccc2c(c1)C[C@@H](NC(=O)c1cc3n(n1)CCC(C(F)(F)F)O3)CO2 (stereo partly shown) [Example 377],< 10 µM
5,O=C(N[C@H]1COc2ccc(-c3cnc(N4CCC4)nc3)cc2C1)c1cc2n(n1)CCC(C(F)(F)F)O2 (stereo partly shown) [Example 380],< 10 µM
6,O=C(N[C@H]1COc2ccc(Cl)cc2C1)c1cc2n(n1)CCC(CF)O2 (stereo partly shown) [Example 381],< 10 µM
7,CC1Oc2cc(C(=O)N[C@H]3COc4ccc(Cl)cc4C3)nn2CC1(F)F (stereo partly shown) [Example 385],< 10 µM
8,O=C(N[C@H]1COc2ccc(Cl)cc2C1)c1cc2n(n1)CCC(C1CC1)O2 (stereo partly shown) [Example 387],< 1 µM
9,N#Cc1ccc2c(c1)C[C@@H](NC(=O)c1cc3n(n1)CCC(C1CCC1)O3)CO2 (stereo partly shown) [Example 388],< 1 µM
10,N#Cc1ccc2c(c1)C[C@@H](NC(=O)c1cc3n(n1)CCC(C#Cc1ccccc1)O3)CO2 (stereo partly shown) [Example 390],< 10 µM
11,CC(C)C1CCn2nc(C(=O)N[C@H]3COc4ccc(C#N)cc4C3)cc2O1 (stereo partly shown) [Example 393],< 10 µM
12,COC(C)(C)C#CC1CCn2nc(C(=O)N[C@H]3COc4ccc(C#N)cc4C3)cc2O1 (stereo partly shown) [Example 394],< 10 µM
13,O=C(N[C@H]1COc2ccc(Cl)cc2C1)c1cc2n(n1)CCC(CC1CCOCC1)O2 (stereo partly shown) [Example 395],< 1 µM
14,O=C(N[C@H]1COc2ccc(CCOCC(F)(F)F)cc2C1)c1cc2n(n1)CCC(C(F)(F)F)O2 (stereo partly shown) [Example 397],< 1 µM
15,CC1(C)CCn2nc(C(=O)N[C@H]3COc4ccc(CCOC(F)(F)F)cc4C3)cc2O1 [Example 403],< 1 µM
16,O=C(N[C@H]1COc2ccc(Cl)cc2C1)c1cc2n(n1)CCC(CC(F)F)O2 (stereo partly shown) [Example 404],< 1 µM
17,O=C(N[C@H]1COc2ccc(C3CC3)cc2C1)c1cc2n(n1)CCC(C(F)F)O2 (stereo partly shown) [Example 405],< 1 µM
18,CCOC(F)C1CCn2nc(C(=O)N[C@H]3COc4ccc(Cl)cc4C3)cc2O1 (stereo partly shown) [Example 409],< 1 µM
19,N#Cc1ccc2c(c1)C[C@@H](NC(=O)c1cc3n(n1)CCC(C(O)C(F)(F)F)O3)CO2 (stereo partly shown) [Example 417],< 10 µM
20,N#Cc1ccc2c(c1)C[C@@H](NC(=O)c1cc3n(n1)CCC(COCCC(F)(F)F)O3)CO2 (stereo partly shown) [Example 418],< 10 µM
21,CC1(COCC2CC2)CCn2nc(C(=O)N[C@H]3COc4ccc(C#N)cc4C3)cc2O1 (stereo partly shown) [Example 419],< 10 µM
